# Test results published in patent publication US11708367B2, “Compounds for the treatment of kinase-dependent disorders” (Exelixis, Inc., priority 2018, dated 2023).
# Assays:
# Format in all cases: cell-based
# KDR = KDR (Homo sapiens (Human), UniProt P35968); assay: KDR autophosphorylation ELISA in HUVEC cells; conditions: cellular, VEGF165-stimulated, phospho-KDR ELISA
# Method: Human umbilical vein endothelial cells or HUVEC (Lonza #C2519A) were seeded at 2×10^4 cells/well onto 96-well plates (Corning #3904), in EGM-2 growth medium (Lonza #CC-3162) containing 1% Penicillin Streptomycin (Thermo Fisher #15140-122). HUVEC cells were incubated at 37° C., 5% CO2 for 24 h and then starved for 24 h in serum-free EBM-2 basal medium (Lonza #CC-3156) containing 1% Penicillin Streptomycin. Test compounds were serially diluted to produce an 8-point dose curve in fresh serum-free medium to a final concentration of 0.3% DMSO (vehicle) and added to the cells and incubated for 1 h. Cells were then stimulated with 100 ng/mL recombinant human VEGF165 (R&D Systems #293-VE-500) for 5 min, washed with cold PBS, and immediately lysed with 130 μL of cold 1× lysis buffer [20 mM Tris, 137 mM sodium chloride, 2 mM EDTA, 10% glycerol, 1% NP-40 alternative, 1 mM activated sodium orthovanadate, 1 mM PefaBloc SC (Sigma-Aldrich #11429868001), protease/phosphatase inhibitor tablet (Thermo Fisher #A32959)]. Lysates were collected and 100 μL/well added into the human phospho-KDR Duo Set IC ELISA (R&D Systems #DYC 1766-2). Assay was performed according to manufacturer's instructions and sample phospho-KDR concentrations were extrapolated using human phospho-KDR control (R&D Systems #841421) as a standard. Positive control wells (100% activity) contained VEGF165-stimulated, DMSO-treated cell lysates. Negative control wells (0% activity) contained non-stimulated cell lysates. IC50 values were calculated by nonlinear regression analysis using a 4-parameter logistic curve fit in ActivityBase XE (IDBS).
# Met = Met (Homo sapiens (Human), UniProt P08581); assay: Met autophosphorylation ELISA in PC-3 cells; conditions: cellular, HGF-stimulated, phospho-Met ELISA, read-out: c-Met IC50
# Chain of Met (P08581 25-1390): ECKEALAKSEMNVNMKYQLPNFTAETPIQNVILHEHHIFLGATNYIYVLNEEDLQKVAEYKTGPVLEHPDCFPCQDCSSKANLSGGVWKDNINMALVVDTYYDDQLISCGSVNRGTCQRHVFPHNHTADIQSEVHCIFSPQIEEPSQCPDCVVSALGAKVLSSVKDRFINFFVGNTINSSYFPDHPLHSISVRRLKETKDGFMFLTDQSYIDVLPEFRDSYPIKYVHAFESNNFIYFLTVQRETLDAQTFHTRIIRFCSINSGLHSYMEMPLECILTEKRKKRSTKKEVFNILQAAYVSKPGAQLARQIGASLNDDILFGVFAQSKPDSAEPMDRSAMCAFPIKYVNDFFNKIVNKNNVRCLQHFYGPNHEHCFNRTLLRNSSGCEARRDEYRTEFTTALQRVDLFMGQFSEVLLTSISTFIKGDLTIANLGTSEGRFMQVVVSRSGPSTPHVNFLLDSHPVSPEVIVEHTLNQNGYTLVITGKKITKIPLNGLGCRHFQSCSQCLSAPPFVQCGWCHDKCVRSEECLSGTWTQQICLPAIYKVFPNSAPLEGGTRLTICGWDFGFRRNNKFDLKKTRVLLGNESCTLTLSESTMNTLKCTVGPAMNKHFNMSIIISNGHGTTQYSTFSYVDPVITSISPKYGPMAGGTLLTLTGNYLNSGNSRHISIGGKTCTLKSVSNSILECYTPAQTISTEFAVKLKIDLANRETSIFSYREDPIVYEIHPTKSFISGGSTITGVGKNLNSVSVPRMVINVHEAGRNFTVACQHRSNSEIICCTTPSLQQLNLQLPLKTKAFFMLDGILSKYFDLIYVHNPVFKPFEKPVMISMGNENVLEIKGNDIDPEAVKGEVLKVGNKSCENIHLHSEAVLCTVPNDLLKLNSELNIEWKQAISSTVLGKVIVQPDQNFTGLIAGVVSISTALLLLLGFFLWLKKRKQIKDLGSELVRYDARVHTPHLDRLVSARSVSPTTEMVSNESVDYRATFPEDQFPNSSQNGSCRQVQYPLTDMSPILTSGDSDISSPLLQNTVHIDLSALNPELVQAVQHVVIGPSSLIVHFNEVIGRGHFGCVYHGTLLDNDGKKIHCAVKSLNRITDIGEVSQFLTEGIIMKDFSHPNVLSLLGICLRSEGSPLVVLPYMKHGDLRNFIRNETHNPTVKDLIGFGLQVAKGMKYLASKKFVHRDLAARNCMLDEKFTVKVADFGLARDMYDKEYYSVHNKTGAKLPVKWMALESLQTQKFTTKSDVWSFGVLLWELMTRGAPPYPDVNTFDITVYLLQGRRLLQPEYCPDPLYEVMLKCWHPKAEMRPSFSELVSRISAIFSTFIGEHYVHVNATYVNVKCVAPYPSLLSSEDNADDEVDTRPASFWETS
# Method: PC-3 prostate cancer cells (ATCC #CRL-1435) were seeded at 4×10^4 cells/well onto 24-well plates (Greiner #662165), in DMEM (Thermo Fisher #11995-040) containing 10% FBS (Thermo Fisher #26140-079), 1% MEM NEAA (Thermo Fisher #11140-050), 1% GlutaMax (Thermo Fisher #35050-061), and 1% Penicillin Streptomycin (Thermo Fisher #15140-122). PC-3 cells were incubated at 37° C., 5% CO2 for 24 h and then starved for 3 h in serum-free medium. Test compounds were serially diluted to produce an 8-point dose curve in fresh serum-free medium to a final concentration of 0.3% DMSO (vehicle) and added to the cells and incubated for 1 h. Cells were then stimulated with 100 ng/mL recombinant human HGF (R&D Systems #294-HG-250) for 10 min, washed with cold PBS, and immediately lysed with 130 μL of cold IX lysis buffer [20 mM Tris, 137 mM sodium chloride, 2 mM EDTA, 10% glycerol, 1% NP-40 alternative, 1 mM activated sodium orthovanadate, 1 mM PefaBloc SC (Sigma-Aldrich #11429868001), protease/phosphatase inhibitor tablet (Thermo Fisher #A32959)]. Lysates were clarified by centrifugation and 100 μL/well added into the PathScan phospho-Met (panTyr) Sandwich ELISA (Cell Signaling Technology #7333). Assay was performed according to manufacturer's instructions. Positive control wells (100% activity) contained HGF-stimulated, DMSO-treated cell lysates. Negative control wells (0% activity) contained HGF-stimulated, reference inhibitor-treated cell lysates. IC50 values were calculated by nonlinear regression analysis using a 4-parameter logistic curve fit in ActivityBase XL (IDBS).
# AXL = AXL (Homo sapiens (Human), UniProt P30530); assay: AXL autophosphorylation ELISA in A-172 cells; conditions: cellular, Gas6-stimulated, phospho-AXL ELISA
# Chain of AXL (P30530 26-894): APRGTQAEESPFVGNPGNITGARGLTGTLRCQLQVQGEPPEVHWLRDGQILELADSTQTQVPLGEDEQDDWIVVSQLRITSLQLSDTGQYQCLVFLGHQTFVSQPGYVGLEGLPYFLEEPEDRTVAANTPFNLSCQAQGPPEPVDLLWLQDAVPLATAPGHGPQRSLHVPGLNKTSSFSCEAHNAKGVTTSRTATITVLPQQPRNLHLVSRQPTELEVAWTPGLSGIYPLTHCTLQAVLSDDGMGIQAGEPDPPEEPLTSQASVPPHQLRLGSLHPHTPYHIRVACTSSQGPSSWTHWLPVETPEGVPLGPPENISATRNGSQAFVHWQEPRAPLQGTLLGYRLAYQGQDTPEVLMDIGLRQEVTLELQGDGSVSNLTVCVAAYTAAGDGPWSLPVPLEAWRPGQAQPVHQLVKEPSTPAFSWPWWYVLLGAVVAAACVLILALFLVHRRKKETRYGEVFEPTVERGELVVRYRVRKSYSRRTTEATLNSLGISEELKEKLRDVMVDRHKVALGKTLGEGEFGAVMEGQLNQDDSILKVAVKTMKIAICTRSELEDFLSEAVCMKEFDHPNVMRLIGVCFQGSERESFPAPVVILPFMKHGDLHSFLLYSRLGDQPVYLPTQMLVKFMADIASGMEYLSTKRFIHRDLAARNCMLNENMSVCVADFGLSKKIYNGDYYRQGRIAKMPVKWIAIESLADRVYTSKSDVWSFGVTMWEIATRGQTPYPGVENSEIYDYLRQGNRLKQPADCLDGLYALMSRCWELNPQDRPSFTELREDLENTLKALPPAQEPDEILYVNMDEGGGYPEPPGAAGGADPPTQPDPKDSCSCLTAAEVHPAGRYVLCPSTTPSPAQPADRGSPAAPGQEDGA
# Method: A-172 glioblastoma cells (ATCC #CRL-1620) were seeded at 2.5×10^5 cells/well onto 24-well plates (Greiner #662165), in DMEM (Thermo Fisher #11995-040) containing 10% FBS (Thermo Fisher #26140-079), 1% MEM NEAA (Thermo Fisher #11140-050), 1% GlutaMax (Thermo Fisher #35050-061), and 1% Penicillin Streptomycin (Thermo Fisher #15140-122). A-172 cells were incubated at 37° C., 5% CO2 for 24 h and then starved for 24 h in serum-free medium. Test compounds were serially diluted to produce an 8-point dose curve in fresh serum-free medium to a final concentration of 0.3% DMSO (vehicle) and added to the cells and incubated for 1 h. Cells were then stimulated with 1 μg/mL recombinant human Gas6 (R&D Systems #885-GSB-500) for 15 min, washed with cold PBS, and immediately lysed with 150 μL of cold IX lysis buffer [20 mM Tris, 137 mM sodium chloride, 2 mM EDTA, 10% glycerol, 1% NP-40 alternative, 1 mM activated sodium orthovanadate, 1 mM PefaBloc SC (Sigma-Aldrich #11429868001), protease/phosphatase inhibitor tablet (Thermo Fisher #A32959)]. Lysates were collected and 100 μL/well added into the human phospho-AXL Duo Set IC ELISA (R&D Systems #DYC2228-2). Assay was performed according to manufacturer's instructions and sample phospho-AXL concentrations were extrapolated using human phospho-AXL control (R&D Systems #841645) as a standard. Positive control wells (100% activity) contained Gas6-stimulated, DMSO-treated cell lysates. Negative control wells (0% activity) contained Gas6-stimulated, reference inhibitor-treated cell lysates. IC50 values were calculated by nonlinear regression analysis using a 4-parameter logistic curve fit in ActivityBase XL (IDBS).
# Chain of KDR (P35968 20-1356): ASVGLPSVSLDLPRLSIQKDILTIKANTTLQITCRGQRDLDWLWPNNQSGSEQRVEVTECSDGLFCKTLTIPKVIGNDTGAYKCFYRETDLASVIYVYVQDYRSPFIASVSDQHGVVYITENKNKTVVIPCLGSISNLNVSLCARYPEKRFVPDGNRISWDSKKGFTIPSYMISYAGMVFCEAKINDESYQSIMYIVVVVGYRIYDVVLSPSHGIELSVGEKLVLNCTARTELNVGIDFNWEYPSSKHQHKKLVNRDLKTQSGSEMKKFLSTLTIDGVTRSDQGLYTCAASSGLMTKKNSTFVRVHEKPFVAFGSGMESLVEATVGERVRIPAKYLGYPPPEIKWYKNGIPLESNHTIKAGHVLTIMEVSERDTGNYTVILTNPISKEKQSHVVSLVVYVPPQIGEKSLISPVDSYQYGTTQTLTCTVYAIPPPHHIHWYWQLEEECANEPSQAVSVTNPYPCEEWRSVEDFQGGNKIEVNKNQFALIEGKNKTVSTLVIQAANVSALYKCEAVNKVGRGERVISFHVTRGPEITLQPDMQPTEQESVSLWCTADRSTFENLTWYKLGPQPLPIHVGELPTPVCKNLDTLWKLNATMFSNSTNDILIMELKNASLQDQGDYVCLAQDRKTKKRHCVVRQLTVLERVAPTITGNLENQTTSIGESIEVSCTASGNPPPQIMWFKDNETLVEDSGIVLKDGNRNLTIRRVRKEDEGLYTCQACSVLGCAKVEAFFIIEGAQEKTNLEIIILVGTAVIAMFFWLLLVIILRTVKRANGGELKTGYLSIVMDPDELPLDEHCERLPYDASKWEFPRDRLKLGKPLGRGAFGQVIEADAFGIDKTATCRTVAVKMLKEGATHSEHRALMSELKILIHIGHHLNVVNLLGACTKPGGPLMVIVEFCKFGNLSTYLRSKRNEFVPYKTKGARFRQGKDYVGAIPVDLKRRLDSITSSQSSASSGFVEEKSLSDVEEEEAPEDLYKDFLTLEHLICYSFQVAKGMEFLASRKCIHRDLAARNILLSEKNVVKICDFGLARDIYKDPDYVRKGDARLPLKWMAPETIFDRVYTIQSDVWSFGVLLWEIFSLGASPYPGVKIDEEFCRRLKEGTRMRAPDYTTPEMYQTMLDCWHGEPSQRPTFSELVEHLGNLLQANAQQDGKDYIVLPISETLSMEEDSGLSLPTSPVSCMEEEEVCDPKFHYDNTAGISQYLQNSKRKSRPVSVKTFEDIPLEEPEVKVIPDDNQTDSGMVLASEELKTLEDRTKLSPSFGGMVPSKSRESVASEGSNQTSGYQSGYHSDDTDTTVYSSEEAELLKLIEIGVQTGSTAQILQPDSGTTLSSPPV
Structure (SMILES),IC50 (KDR) [nM],IC50 (Met) [nM],IC50 (AXL) [nM]
"COCCOc1cc2ncnc(Oc3ccc(NC(=O)C4(C(=O)Nc5ccc(F)cc5)CC4)cc3)c2nc1OC [Compound 78, 1-N′-(4-fluorophenyl)-1-N-[4-[6-methoxy-7-(2-methoxyethoxy)pyrido[3,2-d]pyrimidin-4-yl]oxyphenyl]cyclopropane-1,1-dicarboxamide]",≤ 10,100 to 300,10 to 100
"Cn1cc(-c2ccc3ncnc(Oc4ccc(NC(=O)C5(C(=O)Nc6ccc(F)cc6)CC5)cc4)c3c2)cn1 [Compound 126, 1-N′-(4-fluorophenyl)-1-N-[4-[6-(1-methylpyrazol-4-yl)quinazolin-4-yl]oxyphenyl]cyclo-propane-1,1-dicarboxamide]",> 300,> 300,100 to 300
"COCCOc1cc2nccc(Oc3cc(F)c(NC(=O)C4(C(=O)Nc5ccc(F)cc5)CC4)cc3F)c2nc1OC [Compound 152, 1-N′-[2,5-difluoro-4-[[6-methoxy-7-(2-methoxy-ethoxy)-1,5-naphthyridin-4-yl]oxy]phenyl]-1-N-(4-fluoro-phenyl)cyclopropane-1,1-dicarboxamide]",≤ 10,10 to 100,≤ 10
"COc1nc2c(Oc3cc(F)c(NC(=O)C4(C(=O)Nc5ccc(F)cc5)CC4)cc3F)ccnc2cc1OCCN1CCOCC1 [Compound 153, 1-N′-[2,5-difluoro-4-[[6-methoxy-7-(2-morpholin-4-ylethoxy)-1,5-naphthyridin-4-yl]oxy]phenyl]-1-N-(4-fluorophenyl)cyclo-propane-1,1-dicarboxamide]",≤ 10,10 to 100,≤ 10
"O=C(Nc1ccc(F)cc1)C1(C(=O)Nc2ccc(Oc3ccnc4cc5c(nc34)OCCO5)cc2)CC1 [Compound 157, 1-N-[4-(2,3-dihydro-[1,4]dioxino[2,3-b][1,5]naphthyridin-6-yloxy)phenyl]-1-N′-(4-fluorophenyl)cyclopropane-1,1-dicarboxamide]",> 300,> 300,> 300
"COc1cc2nccc(Oc3ccc(NC(=O)C4(C(=O)Nc5ccc(F)cc5)CC4)cc3F)c2nc1C#N [Compound 165, 1-N′-[4-[(6-cyano-7-methoxy-1,5-naphthyridin-4-yl)oxy]-3-fluorophenyl]-1-N-(4-fluorophenyl)cyclo-propane-1,1-dicarboxamide]",100 to 300,100 to 300,10 to 100
"COc1cc2nccc(Oc3ccc(NC(=O)C4(C(=O)Nc5ccc(F)cc5)CC4)cc3Cl)c2nc1C#N [Compound 166, 1-N′-[3-chloro-4-[(6-cyano-7-methoxy-1,5-naphthyridin-4-yl)oxy]phenyl]-1-N-(4-fluorophenyl)cyclopropane-1,1-dicarboxamide]",10 to 100,100 to 300,100 to 300

# Further lines, results first:
IC50 (KDR) [nM],IC50 (Met) [nM],IC50 (AXL) [nM],Structure (SMILES)
100 to 300,100 to 300,10 to 100,"COc1cc2ncnc(Oc3ccc(NC(=O)C4(C(=O)Nc5ccc(F)cc5)CC4)c(Cl)c3)c2nc1OC [Compound 32, 1-N′-[2-chloro-4-(6,7-dimethoxypyrido[3,2-d]pyrimidin-4-yl)oxyphenyl]-1-N-(4-fluorophenyl)cyclo-propane-1,1-dicarboxamide]"
100 to 300,> 300,100 to 300,"COc1cc2ncnc(Oc3ccc(NC(=O)C4(C(=O)Nc5ccc(F)cc5)CC4)c(C)c3)c2nc1OC [Compound 33, 1-N′-[4-(6,7-dimethoxypyrido[3,2-d]pyrimidin-4-yl)oxy-2-methylphenyl]-1-N-(4-fluorophenyl)cyclopropane-1,1-dicarboxamide]"
10 to 100,> 300,100 to 300,"COc1cc(NC(=O)C2(C(=O)Nc3ccc(F)cc3)CC2)ccc1Oc1ncnc2cc(OCCCN3CCOCC3)c(OC)nc12 [Compound 74, 1-N-(4-fluorophenyl)-1-N′-[3-methoxy-4-[6-methoxy-7-(3-morpholin-4-ylpropoxy)pyrido[3,2-d]pyrimidin-4-yl]oxyphenyl]cyclopropane-1,1-dicarboxamide]"
≤ 10,10 to 100,≤ 10,"COc1cc2nccc(Oc3cc(F)c(NC(=O)C4(C(=O)Nc5ccc(F)cc5)CC4)cc3F)c2nc1OC [Compound 142, 1-N′-[4-[(6,7-dimethoxy-1,5-naphthyridin-4-yl)oxy]-2,5-difluorophenyl]-1-N-(4-fluorophenyl)cyclo-propane-1,1-dicarboxamide]"
> 300,> 300,> 300,"O=C(Nc1ccc(F)cc1)C1(C(=O)Nc2ccc(Oc3ccnc4cc5c(nc34)OCCO5)c(F)c2)CC1 [Compound 158, 1-N′-[4-(2,3-dihydro-[1,4]dioxino[2,3-b][1,5]naphthyridin-6-yloxy)-3-fluorophenyl]-1-N-(4-fluorophenyl)cyclo-propane-1,1-dicarboxamide]"
> 300,100 to 300,> 300,"O=C(Nc1ccc(F)cc1)C1(C(=O)Nc2ccc(Oc3ccnc4cc5c(nc34)OCCO5)c(Cl)c2)CC1 [Compound 159, 1-N′-[3-chloro-4-(2,3-dihydro-[1,4]dioxino[2,3-b][1,5]naphthyridin-6-yloxy)phenyl]-1-N-(4-fluorophenyl)cyclopropane-1,1-dicarboxamide]"
100 to 300,> 300,100 to 300,"COc1cc2nccc(Oc3ccc(NC(=O)C4(C(=O)Nc5ccc(F)cc5)CC4)cc3)c2nc1C#N [Compound 164, 1-N-[4-[(6-cyano-7-methoxy-1,5-naphthyridin-4-yl)oxy]phenyl]-1-N′-(4-fluoro-phenyl)cyclopropane-1,1-dicarboxamide]"
> 300,> 300,100 to 300,"COc1cc2nccc(Oc3ccc(NC(=O)C4(C(=O)Nc5ccc(F)cc5)CC4)cc3)c2nc1C(N)=O [Compound 167, 1-N-[4-[(6-carbamoyl-7-methoxy-1,5-naphthyridin-4-yl)oxy]phenyl]-1-N′-(4-fluorophenyl)cyclopropane-1,1-dicarboxamide]"
> 300,100 to 300,> 300,"COc1cc2nccc(Oc3ccc(NC(=O)C4(C(=O)Nc5ccc(F)cc5)CC4)cc3F)c2nc1C(N)=O [Compound 168, 1-N′-[4-[(6-carbamoyl-7-methoxy-1,5-naphthyridin-4-yl)oxy]-3-fluoro-phenyl]-1-N-(4-fluorophenyl)cyclopropane-1,1-dicarboxamide]"
